Source: PubChem BioAssay AID330 (DTP/NCI, 2004)
“And” between values parts separate entries of the source, which are not always exact repeats. Equal values may be shown once. Inconclusive results and toxic doses are left out. Rule for the calls: active = survival T/C of 150% or more; inactive = T/C below 125% in these data.

Test system: P388 leukemia ip, CD2F1 mice, survival T/C
Assay: NCI In Vivo Anticancer Drug Screen. Data for tumor model P388 Leukemia (intraperitoneal) in CD2F1 (CDF1) mice
Details: endpoint: median survival time, higher = longer survival
In short: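 Mice carrying the transplanted tumor received test compound or vehicle. Survival was recorded in each group, and the value is the treated-group measurement divided by that of the vehicle-treated control group.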

[1] = dose: 100.0 mg/kg/injection, schedule: Q04DX003 (ip), vehicle: saline with Tween-80
[2] = dose: 200.0 mg/kg/injection, schedule: Q04DX003 (ip), vehicle: saline with Tween-80
[3] = dose: 12.5 mg/kg/injection, schedule: Q01DX005 (ip), vehicle: saline
[4] = dose: 25.0 mg/kg/injection, schedule: Q01DX005 (ip), vehicle: saline
[5] = dose: 50.0 mg/kg/injection, schedule: Q01DX009 (ip), vehicle: Klucel (hydroxypropylcellulose) (HPC)
[6] = dose: 60.0 mg/kg/injection, schedule: Q01DX005 (ip), vehicle: saline with Tween-80
[7] = dose: 100.0 mg/kg/injection, schedule: Q01DX009 (ip), vehicle: Klucel (hydroxypropylcellulose) (HPC)
[8] = dose: 120.0 mg/kg/injection, schedule: Q01DX005 (ip), vehicle: saline with Tween-80
[9] = dose: 200.0 mg/kg/injection, schedule: Q01DX009 (ip), vehicle: Klucel (hydroxypropylcellulose) (HPC)
[10] = dose: 240.0 mg/kg/injection, schedule: Q01DX005 (ip), vehicle: saline with Tween-80
[11] = dose: 50.0 mg/kg/injection, schedule: Q01DX009 (ip), vehicle: saline with Tween-80
[12] = dose: 100.0 mg/kg/injection, schedule: Q01DX009 (ip), vehicle: saline with Tween-80
[13] = dose: 200.0 mg/kg/injection, schedule: Q01DX009 (ip), vehicle: saline with Tween-80
[14] = dose: 12.5 mg/kg/injection, schedule: Q01DX005 (ip), vehicle: saline with Tween-80
[15] = dose: 25.0 mg/kg/injection, schedule: Q01DX005 (ip), vehicle: saline with Tween-80
[16] = dose: 50.0 mg/kg/injection, schedule: Q01DX005 (ip), vehicle: saline with Tween-80
[17] = dose: 100.0 mg/kg/injection, schedule: Q01DX001 (ip), vehicle: saline
[18] = dose: 200.0 mg/kg/injection, schedule: Q01DX001 (ip), vehicle: saline
[19] = dose: 400.0 mg/kg/injection, schedule: Q01DX001 (ip), vehicle: saline

Measured: T/C

CCC(C)CN1CCc2c(c3c(c(OC)c2OC)CCC3)C1 (configuration not stated)
inactive: dose: 50.0 mg/kg/injection, schedule: Q04DX002 (ip), vehicle: saline 101 % of control | dose: 100.0 mg/kg/injection, schedule: Q04DX002 (ip), vehicle: saline 102 % of control | dose: 200.0 mg/kg/injection, schedule: Q04DX002 (ip), vehicle: saline 96 % of control

[C-]#[O+].[C-]#[O+].[CH3][Sn]([CH3])[c]1ccccc1.[Fe+5].[c-]1[c-][c-][cH-][c-]1
inactive: [1] 108 % of control | [2] 118 % of control

CCCN(CCNc1cc(OC)cc2cccnc12)C(C)C
inactive: [3] 107 % of control | [4] 107 % of control | dose: 50.0 mg/kg/injection, schedule: Q01DX005 (ip), vehicle: saline 106 % of control and 88 % of control

O=C(Nc1ccc(Cl)c(Cl)c1)C1C(=O)C(=O)N(c2ccc(Cl)c(Cl)c2)C1=O (configuration not stated)
inactive: [5] 97 % of control | [6] 101 % of control | [7] 109 % of control | [8] 100 % of control | [9] 103 % of control | [10] 103 % of control

CCOC(CN=Cc1cc(C)c2oc3ccccc3c2c1C)OCC
inactive: [11] 100 % of control | [12] 100 % of control | [13] 95 % of control

CC(=O)c1c(-c2ccc(Cl)cc2)c(-c2ccc(Cl)cc2)nn(CCN)c1=O
inactive: [14] 100 % of control | [15] 98 % of control | [16] 98 % of control and 95 % of control

Cc1cc(C)n(-c2ccnc(N3CCOCC3)n2)n1
inactive: [17] 100 % of control | [18] 96 % of control | [19] 97 % of control

CC(C)(C)C1(C#N)C(=O)N(c2ccc(Cl)cc2)C12c1ccccc1-c1ccccc12 (configuration not stated)
inactive: [5] 99 % of control | [7] 118 % of control | [9] 105 % of control

Cc1ccc(N=C2c3ccccc3-c3ccc(NC(=O)c4ccccc4)cc32)cc1
inactive: dose: 3.12 mg/kg/injection, schedule: Q01DX005 (ip), vehicle: saline with Tween-80 93 % of control | dose: 6.25 mg/kg/injection, schedule: Q01DX005 (ip), vehicle: saline with Tween-80 93 % of control | [14] 86 % of control | [16] 86 % of control

N#CC1CCCC(Cc2ccccc2)(c2ccccc2)C1=O (configuration not stated)
inactive: dose: 100.0 mg/kg/injection, schedule: Q01DX001 (ip), vehicle: Klucel (hydroxypropylcellulose) (HPC) 101 % of control | dose: 200.0 mg/kg/injection, schedule: Q01DX001 (ip), vehicle: Klucel (hydroxypropylcellulose) (HPC) 102 % of control | dose: 400.0 mg/kg/injection, schedule: Q01DX001 (ip), vehicle: Klucel (hydroxypropylcellulose) (HPC) 100 % of control

CCC/C(=N\NC(=S)N(C)C)c1ccccn1
inactive: [14] 103 % of control | [15] 107 % of control | [16] 115 % of control and 117 % of control

COCn1cc(C(N)=O)c(=O)c2c(N)nc(SC)nc21
inactive: dose: 25.0 mg/kg/injection, schedule: Q04DX002 (ip), vehicle: saline with Tween-80 96 % of control

Nc1nc(-c2cc(Cl)cc(Cl)c2)cc(-c2cc(-c3cc(Cl)cc(Cl)c3)nc(N)n2)n1
inactive: [6] 100 % of control | [8] 106 % of control | [10] 96 % of control

OC(CN(Cc1nc2ccccc2[nH]1)Cc1nc2ccccc2[nH]1)CN(Cc1nc2ccccc2[nH]1)Cc1nc2ccccc2[nH]1
inactive: [6] 115 % of control | [8] 115 % of control

Cc1ccnc(NCCCCCCNc2nccc(C)n2)n1
inactive: [1] 87 % of control | [2] 98 % of control | dose: 400.0 mg/kg/injection, schedule: Q04DX003 (ip), vehicle: saline with Tween-80 91 % of control

CCN(CC)CCCC(C)n1c2nc(=O)[nH]c(=O)c-2nc2ccc(Cl)cc21 (configuration not stated)
inactive: dose: 6.25 mg/kg/injection, schedule: Q01DX005 (ip), vehicle: saline 100 % of control | [3] 107 % of control | [4] 112 % of control

O=C(CN(OC(=O)c1ccccc1)C(=O)c1ccccc1)OCc1ccccc1
inactive: dose: 12.5 mg/kg/injection, schedule: Q01DX009 (ip), vehicle: distilled water + Tween-80 92 % of control | dose: 25.0 mg/kg/injection, schedule: Q01DX009 (ip), vehicle: distilled water + Tween-80 99 % of control | dose: 50.0 mg/kg/injection, schedule: Q01DX009 (ip), vehicle: distilled water + Tween-80 99 % of control | dose: 100.0 mg/kg/injection, schedule: Q01DX009 (ip), vehicle: distilled water + Tween-80 100 % of control | dose: 200.0 mg/kg/injection, schedule: Q01DX009 (ip), vehicle: distilled water + Tween-80 101 % of control

O=C(O)C1(NO)CCCCC1
inactive: dose: 25.0 mg/kg/injection, schedule: Q01DX009 (ip), vehicle: Klucel (hydroxypropylcellulose) (HPC) 105 % of control | [5] 107 % of control and 110 % of control and 115 % of control | [11] 107 % of control and 119 % of control | [7] 105 % of control and 108 % of control and 119 % of control | [12] 120 % of control and 123 % of control | [9] 111 % of control and 87 % of control | [13] 99 % of control and 119 % of control | dose: 400.0 mg/kg/injection, schedule: Q01DX009 (ip), vehicle: Klucel (hydroxypropylcellulose) (HPC) 110 % of control and 96 % of control | dose: 600.0 mg/kg/injection, schedule: Q01DX009 (ip), vehicle: Klucel (hydroxypropylcellulose) (HPC) 101 % of control and 98 % of control

Cc1nn(C)pc1P(C)(=S)n1nc(N(C)C)np1 (configuration not stated)
inactive: dose: 50.0 mg/kg/injection, schedule: Q01DX005 (ip), vehicle: Klucel (hydroxypropylcellulose) (HPC) 98 % of control | dose: 100.0 mg/kg/injection, schedule: Q01DX005 (ip), vehicle: Klucel (hydroxypropylcellulose) (HPC) 103 % of control

CC(=O)Nc1c(Cl)c(Cl)c2c(c1Cl)C(=O)c1cc(Cl)ccc1-2
inactive: dose: 25.0 mg/kg/injection, schedule: Q01DX009 (ip), vehicle: saline with Tween-80 90 % of control | [11] 90 % of control | [12] 90 % of control

CC(C)(C)OC(=O)NN=C1CCC(C(C)(C)C)CC1 (configuration not stated)
inactive: dose: 25.0 mg/kg/injection, schedule: Q04DX003 (ip), vehicle: Klucel (hydroxypropylcellulose) (HPC) 100 % of control | dose: 50.0 mg/kg/injection, schedule: Q04DX003 (ip), vehicle: Klucel (hydroxypropylcellulose) (HPC) 95 % of control | dose: 100.0 mg/kg/injection, schedule: Q04DX003 (ip), vehicle: Klucel (hydroxypropylcellulose) (HPC) 100 % of control

C=C1C(=O)O[C@@H]2[C@H]3C(C)=CC[C@H]3C(C)=CC[C@@H]12
inactive: [17] 106 % of control | [18] 103 % of control | [19] 107 % of control

CN(C)CCSc1cc(O)c2c(c1O)C(=O)c1ccccc1C2=O
inactive: dose: 12.5 mg/kg/injection, schedule: Q04DX003 (ip), vehicle: water 107 % of control | dose: 25.0 mg/kg/injection, schedule: Q01DX009 (ip), vehicle: water 102 % of control | dose: 25.0 mg/kg/injection, schedule: Q04DX003 (ip), vehicle: water 98 % of control | dose: 50.0 mg/kg/injection, schedule: Q01DX009 (ip), vehicle: water 103 % of control | dose: 50.0 mg/kg/injection, schedule: Q04DX003 (ip), vehicle: water 102 % of control | dose: 100.0 mg/kg/injection, schedule: Q01DX009 (ip), vehicle: water 102 % of control | dose: 100.0 mg/kg/injection, schedule: Q04DX003 (ip), vehicle: water 102 % of control | dose: 200.0 mg/kg/injection, schedule: Q01DX009 (ip), vehicle: water 97 % of control | dose: 200.0 mg/kg/injection, schedule: Q04DX003 (ip), vehicle: water 118 % of control
